Assay results taken from US4464359A, “(2'-5')-Oligo (3'-deoxyadenylate) and derivatives thereof” (Research Corporation, priority 1981, dated 1984).
Values joined by “and” are separate entries in the source; they are usually repeats but may differ in a detail not shown here. Equal entries are not always repeated. Where two headings read alike, the source gives them in different places.

How the values were obtained:
[1] = tested on: uninfected lymphocytes; assay: DNA synthesis of uninfected lymphocytes; assay type: cell-based, human
Procedure: (§1) Heparinized whole venous blood was obtained from the umbilical cords of newborn infants (human umbilical cord lymphocytes) or EBV-seronegative volunteers (peripheral blood lymphocytes) in collaboration with Temple University Hospital, Philadelphia, PA. Mononuclear leukocytes were prepared by the Ficoll-Hypaque method of Boyum (Scand. J. Clin. Invest. 21 (Sup. 97), 77 (1968)) and were cultured in RPMI-1640 supplemented with 20% fetal bovine serum as described (Henderson et al, Virology 76, 152 (1977)). The lymphoblastoid cell lines BJAB and RAJI were gifts of Drs. Werner and Gertrude Henle, Children's Hospital, University of Pennsylvania, Philadelphia, PA, and were cultured as described above. The lymphoblastoid line C85-5C was obtained by transformation of human umbilical cord lymphocytes following infection with EBV and maintained as described aove. Cultured mouse L cells were maintained in minimum essential medium (Eagle) supplemented with Earle's salts, L-glutamine and 6% fetal bovine serum. Interferon-treated mouse L cells were supplied by Dr. Esther H. Chang, National Cancer Institute, NIH. […] EBV stocks were maintained at -70° C. until use. Human umbilical cord lymphocytes and peripheral blood lymphocytes were infected as described (Henderson et al, Supra).
(§2) The antiviral properties of 5'-dephosphorylated "core" (2'-5')A(pA)2, (2'-5')A(pA)3 and (2'-5')3'dA-(p3'dA)2 were compared to the antiviral properties of IFN-α and IFN-β. The (2'-5')oligonucleotides and interferons inhibited Epstein-Barr Virus (EBV)-induced stimulation of DNA synthesis in EBV infected human lymphocytes. […] The "core" 3'-deoxy (2'-5') oligonucleotide analog inhibited EBV-induced morphological transformation of lymphocytes much the same as "core" (2'-5')A(pA)2 and (2'-5')A(pA)3.

[2] = tested on: Herpes Simplex Virus Type 1 (HSV-1); assay: Infected centers assay: HSV-1 exposed leukocytes plated onto human foreskin fibroblast monolayers, cytopathic effects (cpe); assay type: cell-based; settings: for development of cpe from HSV-1 infected leukocytes / HSV-1 replication: 72 hr incubation, human foreskin fibroblast monolayers
Procedure: Therefore, we employed an infected centers assay utilizing lymphocytes to determine the ability of (2'-5') oligonucleotides to inhibit HSV-1. After incubation for 72 hr with or without (2'-5')oligonucleotides, leukocytes exposed to HSV-1 were plated onto human foreskin fibroblast monolayers (Table 2).

[3] = tested on: Raji lymphoblastoid cell line; assay: Cytotoxicity by colony formation in microtiter plates, Raji; assay type: cell-based; settings: for Concentration at which colony formation was inhibited by greater than 50 percent: treatment for 7 days
Procedure: as §1
(§3) Therefore, the effect of these agents on colony formation in closely related lymphoblastoid cell lines was determined (Table 3).

[4] = Stability (hydrolysis) in HeLa cell extracts; assay type: in vitro ADME; settings: 500 μM; cellulose tlc (solvents A and B)
Procedure: FIG. 2 is a stability representation of (2'-5')p3 A(pA)n and (2'-5')p3 3'dA(p3'dA)n in HeLa cell extracts.
The stability of (2'-5')ppp3'dA(p3'dA)n in HeLa cell extracts was compared to that of (2'-5')pppA(pA)n. […] With 500 μM (2'-5')pppA(pA)n, there was a 50% hydrolysis in 45 min as determined by DEAE cellulose chromatography; with 500 μM authentic core analog, (2'-5')3'dA(p3'dA)2, there was no hydrolysis as determined by cellulose tlc (solvents A and B). Neither cordycepin nor 3'dAMP was detected. The lack of hydrolysis of the analog may be similar to the lack of hydrolysis of (3'-5')2'-deoxyoligonucleotides by the 2',5'-phosphodiesterase.

[5] = tested on: Epstein-Barr Virus (EBV); assay: EBV-induced morphological transformation of lymphocytes; assay type: cell-based; settings: absence of interferon
Procedure: as §1, §2

[6] = tested on: BJAB lymphoblastoid cell line; assay: Cytotoxicity by colony formation in microtiter plates, BJAB; assay type: cell-based; settings: for Concentration at which colony formation was inhibited by greater than 50 percent: treatment for 7 days
Procedure: as §1, §3

[7] = tested on: Epstein-Barr Virus (EBV); assay: EBV-induced stimulation of DNA synthesis in EBV infected human lymphocytes; assay type: cell-based
Procedure: as §1

[8] = tested on: C85-5C lymphoblastoid cell line; assay: Cytotoxicity by colony formation in microtiter plates, C85-5C; assay type: cell-based, human; settings: treatment for 7 days
Procedure: as §1, with “Human umbilical cord lymphocytes and peripheral blood lymphocytes were infected as described (Henderson et al, Supra).” left out
as §3

[9] = tested on: lymphoblastoid cell lines; assay: Lymphoblast colony formation / cytotoxicity, cell line not given; assay type: cell-based
Procedure: as §1, with “Mononuclear leukocytes were prepared by the Ficoll-Hypaque method of Boyum (Scand. J. Clin. Invest. 21 (Sup. 97), 77 (1968)) and were cultured in RPMI-1640 supplemented with 20% fetal bovine serum as described (Henderson et al, Virology 76, 152 (1977)).” left out
as §3

Compound	DNA synthesis of uninfected lymphocytes [1]	cpe at given number of HSV-exposed leukocytes per cell ([2]; 10 μM, 2 × 10^5 leukocytes)	cpe at given number of HSV-exposed leukocytes per cell ([2]; 10 μM, 2.2 × 10^4 leukocytes)	cpe at given number of HSV-exposed leukocytes per cell ([2]; 10 μM, 6.7 × 10^4 leukocytes)	cpe at given number of HSV-exposed leukocytes per cell ([2]; 50 μM, 2 × 10^5 leukocytes)	cpe at given number of HSV-exposed leukocytes per cell ([2]; 50 μM, 2.2 × 10^4 leukocytes)	cpe at given number of HSV-exposed leukocytes per cell ([2]; 50 μM, 6.7 × 10^4 leukocytes)	cpe at given number of HSV-exposed leukocytes per cell ([2]; 75 μM, 2 × 10^5 leukocytes)	cpe at given number of HSV-exposed leukocytes per cell ([2]; 75 μM, 2.2 × 10^4 leukocytes)	cpe at given number of HSV-exposed leukocytes per cell ([2]; 75 μM, 6.7 × 10^4 leukocytes)	cpe at given number of HSV-exposed leukocytes per cell ([2]; 150 μM, 2.2 × 10^4 leukocytes)	development of cpe from HSV-1 infected leukocytes / HSV-1 replication [2]	concentration found toxic (inhibition of colony formation) [3]	Concentration at which colony formation was inhibited by greater than 50 percent [3]	EBV-induced morphological transformation of lymphocytes [5]	concentration found toxic (inhibition of colony formation) [6]	Concentration at which colony formation was inhibited by greater than 50 percent [6]	EBV-induced stimulation of DNA synthesis [7]	cpe at given number of HSV-exposed leukocytes per cell ([2]; 150 μM, 2 × 10^5 leukocytes)	cpe at given number of HSV-exposed leukocytes per cell ([2]; 150 μM, 6.7 × 10^4 leukocytes)	also measured
Nc1ncnc2c1ncn2[C@@H]1O[C@H](COP(=O)(O)O[C@@H]2C[C@@H](COP(=O)(O)O[C@@H]3C[C@@H](CO)O[C@H]3n3cnc4c(N)ncnc43)O[C@H]2n2cnc3c(N)ncnc32)C[C@H]1O [(2'-5')3'dA(p3'dA)2, 3'-deoxyadenylyl (2'-5')3'-deoxyadenylyl(2'-5')3'-deoxyadenosine]	inhibited only viral-induced DNA synthesis	+++	+	++	++	+	++	++	0	+	0	less effective in inhibiting the development of cpe	no toxicity	> 300 µM	inhibited	no toxicity	> 300 µM	inhibited only viral-induced DNA synthesis	–	–	concentration found toxic (inhibition of colony formation) ([3]; listed as (2'-5')2'dA(p3'dA)3): > 300 µM; hydrolysis in HeLa cell extracts [4]: no hydrolysis; concentration found toxic (inhibition of colony formation) ([6]; listed as (2'-5')2'dA(p3'dA)3): > 300 µM
Nc1ncnc2c1ncn2[C@@H]1O[C@H](COP(=O)(O)O[C@@H]2[C@H](O)[C@@H](COP(=O)(O)O[C@@H]3[C@H](O)[C@@H](CO)O[C@H]3n3cnc4c(N)ncnc43)O[C@H]2n2cnc3c(N)ncnc32)[C@@H](O)[C@H]1O [(2'-5')A(pA)2, adenylyl-(2'-5')adenylyl(2'-5')adenosine]	potent inhibitors	+++	0	++	++	0	++	++	0	0	0	inhibited the development of cpe	150 to 300 µM and 300 µM	300 µM	inhibited	150 to 300 µM and 300 µM	150 to 300 µM	potent inhibitors	+	0	–
Nc1ncnc2c1ncn2[C@@H]1O[C@H](COP(=O)(O)O[C@@H]2[C@H](O)[C@@H](COP(=O)(O)O[C@@H]3[C@H](O)[C@@H](COP(=O)(O)O[C@@H]4[C@H](O)[C@@H](CO)O[C@H]4n4cnc5c(N)ncnc54)O[C@H]3n3cnc4c(N)ncnc43)O[C@H]2n2cnc3c(N)ncnc32)[C@@H](O)[C@H]1O [(2'-5')A(pA)3, adenylyl(2'-5')adenylyl(2'-5')-adenylyl (2'-5')adenosine]	potent inhibitors	++	0	+	+	0	0	++	0	0	0	inhibited the development of cpe	–	50 µM	inhibited	–	150 µM	potent inhibitors	+	0	–
IFN-α	–	–	–	–	–	–	–	–	–	–	–	–	–	–	–	–	–	inhibited	–	–	Concentration at which colony formation was inhibited by greater than 50 percent [8]: > 1000 U/ml; cytotoxicity / effect on lymphoblast colony formation [9]: no appreciable effect
